Consider 1 compound from patent publication US20200397894A1, “COMPOSITIONS AND METHODS FOR TREATING CANCER” (University of Virginia Patent Foundation, priority 2016, published 2020).

One data set concerns FaDu cells. The experiment in a line: Rereplication by propidium iodide staining and FACS (HNSCC). Type of data set: cell-based, human. On the procedure:
The effect of pevonedistat treatment or CDT2, geminin, or EMI1 knockdown on the cell cycle (and induction of DNA rereplication) was assessed by flow cytometry with propidium iodide (PI) staining. Cells were harvested at 72 or 96 hours post-treatment with pevonedistat or post-transfection, respectively. Cells were collected, washed with PBS, and resuspended in ethanol (75%). Cells were subsequently treated with 20 μg of DNase-free RNase and stained with PI following the manufacturer's protocol. FACSCAN™ (Becton, Dickinson and Company, Franklin Lakes, N.J., United States of America) was used to analyze the samples and G0-G1, S, and G2-M fractions were segmented. Subsequent analysis using FLOWJO® (FLOWJO, LLC, Ashland, Oreg., United States of America) and ModFit (Verity Software House, Topsham, Me., United States of America) software was used to determine apoptotic and re-replicating fractions. Where indicated, Cal27 and FaDu cells were treated with pevonedistat for 48 hours and pulsed with BrdU (10 nM) for 1 hour in the dark prior to harvesting. Cells were washed with PBS and staining solution before fixation and permeabilization steps according to the manufacturer's protocol. Cells were subsequently stained with anti-BrdU antibody solution for 20 minutes at room temperature, washed, and stained with 7-AAD for 30 minutes at 4° C. Cells were resuspended in 1 ml of staining buffer and stored at 4° C. overnight before analysis. Sampled were analyzed on a FACSCAN™ (Becton, Dickinson and Company, Franklin Lakes, N.J., United States of America), and different fractions of BrdU positive cells were determined using FLOWJO® (FLOWJO, LLC, Ashland, Oreg., United States of America) and ModFit (Verity Software House, Topsham, Me., United States of America) software.

In the next data set the test system is VMM1 melanoma cells. The experiment in a line: Cell proliferation/viability MTT assay. Type of data set: cell-based. Particulars: Homo sapiens, 96 hours. The method, then: (§1) Proliferation and viability of cultured cells was measured by CELLTITER96® Non-radioactive Cell Proliferation Assay (Promega Corporation; Madison, Wis., United States of America). Briefly, various wild type and mutant BRAF melanoma cells were seeded in 96 well plates and treated with pevonedistat, vemurafenib, or the combination pevonedistat and vemurafenib at various concentrations. Control cells were treated with DMSO. 96 hours following treatment, cells were stained with the dye solution according to the manufacturer's protocol. Absorbance was recorded at 570 nm and growth curves were established. To test the effect of transient exposure of melanoma cells to pevonedistat on rereplication and growth inhibition, washout experiments were conducted where melanoma cells or PIG3V melanocytes were treated with […] pevonedistat for different times (4, 8, 12, and 24 hours) before the drug was washed out by washing the cells twice with PBS, and adding drug-free fresh growth media to cells. Cells were counted every 24 hours using a COUNTESS™ Automated Cell Counter (INVITROGEN™, Carlsbad, Calif., United States of America), and harvested at the indicated times for PI staining and FACS analysis (cell cycle profile) or for immunoblotting.
(Formazan colour is commonly taken as a measure of viable cells.)

A further data set deals with VMM39 cells. The experiment in a line: Cell proliferation/viability MTT assay. It counts as cell-based. Particulars: Homo sapiens, 96 hours. On the procedure:
as §1

The subject of the next data set is DM13 cells. Kind of data set: Cell proliferation/viability MTT assay. Type of data set: cell-based. Particulars: Homo sapiens, 96 hours. The method, then:
as §1

A further data set concerns SqCC/Y1 HNSCC cells. The following applies: SqCC/Y1, 0.5 μM pevonedistat; cited from earlier work.
In a further data set the test system is Cal27 xenografts. The experiment in a line: HNSCC flank xenograft in nude mice. Type of data set: in vivo. On the procedure:
The animal studies were conducted in accordance with the guidelines established by the University of Virginia Animal Care and Use Committee (ACUC). The effect of pevonedistat on tumor growth was tested in a flank HNSCC xenograft model. 4-5 weeks old Foxn1^nu athymic female nude immunodeficient mice (20-25 g body weight; Harlan Laboratories, now Envigo, Indianapolis, Ind., United States of America) were used. Pevonedistat was prepared in 10% DMSO containing PBS and filtered before use. 5×10^6 Cal27 cells (suspended in 200 μl sterile PBS) were inoculated subcutaneously in both flanks of nude mice (8 mice per group). When the tumor size reached 100 mm^3 (10 days post-inoculation), mice were randomized and were treated with pevonedistat (20 mg/kg), or with control vehicle (DMSO), administered intraperitoneally on a regimen of 5 days on/5 days off for 2 cycles (Tardat et al., 2010). Tumors from a third group of mice were exposed to 1Gy irradiation (IR) daily, 5 days/week for 3 weeks, and a fourth group of mice received both pevonedistat and IR treatments. Tumor irradiation was performed at the University of Virginia X-Ray facility, and only the tumors on both flanks were irradiated while the rest of animal body was shielded. For combination treatment, pevonedistat was given 2 hours prior to radiation exposure with the same schedule as for the individual treatments. Tumor growth was monitored every other day using an electronic caliper, for 3 weeks post-treatment and average of tumor volumes were calculated using the formula (L×W^2)/2). The results are represented as the mean tumor volumes±s.e.m, and p<0.05 was considered significant.

As for `NS(=O)(=O)OCC1CC(n2ccc3c(NC4CCc5ccccc54)ncnc32)CC1O` [pevonedistat, ((1S,2S,4R)-4-(4-((1S)-2,3-Dihydro-H-inden-1-ylamino)-7H-pyrrolo(2,3-d)pyrimidin-7-yl)-2-hydroxycyclopentyl)methyl sulphamate], the cells undergoing rereplication in the data set with FaDu cells (40 nM pevonedistat 48 hours plus 2 Gy at the 24 hour time point) turned out to be 42.2%; with FaDu cells (40 nM pevonedistat for 48 hours) it was 21.6%. Besides, the “cells exhibiting >4N DNA content” value in the data set on FaDu cells (100 nM pevonedistat, PI staining) is on record as 60.4%. In addition, the IC50 in the data set on VMM1 melanoma cells came out at 330 nM; in the data set on VMM39 cells it was 35 nM; in the data set with DM13 cells, 40 nM. Moreover, the “apoptosis (% of cells)” value in the data set on SqCC/Y1 HNSCC cells is reported as 55%. For the same compound, in the data set on Cal27 xenografts (20 mg/kg IP, p=0.0211), the “growth of Cal27 xenografts” value was “significantly suppressed”. Also, the “growth of Cal27 xenografts, combined treatment with IR” value in the data set on Cal27 xenografts (20 mg/kg pevonedistat plus 1 Gy IR daily, p=2×10^−3 vs. control) is “more suppression than either treatment alone”. Further, in the data set with Cal27 xenografts (nude mice, 20 mg/kg IP, 5 days on/5 days off, two cycles), the tolerability entry was “well tolerated”. In addition, the “effect on mouse weight” value in the data set on Cal27 xenografts (weighed once a week during the entire experiment) is listed as “no significant effect”.

Broadly, the IC50 is the concentration needed to halve the response being measured.
